This passage reports IC50 results from US20100056468A1, “Pyrimidine Derivatives As Anticancer Agents” (University Health Network, priority 2007, published 2010).

Each structure is given as a SMILES string. Some results are limits rather than exact numbers.

One assay concerns CCD967. Description: In vitro cell proliferation assay (WST.1, Table 5). It counts as cell-based. Conditions: Homo sapiens, CCD-967, 72 h; CCD967 normal skin line, day 3. How it is done:
(§1) These cell lines were grown in Iscove's MDM supplemented with 5% fetal calf serum (FCS), 50 μM 2-mercaptoethanol, 100 μg/ml penicillin, and 100 μg/ml streptomycin. Cell lines growing in suspension were maintained at 0.5-1.5×10^6 cell/ml, while adherent cell lines were maintained at subconfluent densities.
(§2) Cell lines were seeded in triplicate at 10^4 cells/100 μl in 96-well plates. Peripheral blood mononuclear cells were seeded in triplicate at 10^5 cells/100 μl in 96-well plate. Different test compounds were added immediately at final concentrations ranging between 0 to 100 μM. All compounds were dissolved in sterile deionized water, so water was added to the control wells. On day 3, WST.1 assay (Roche) was used to measure the effect of different test compounds on cell growth. WST.1 assay is a calorimetric assay for the nonradioactive quantification of cell proliferation, cell viability, and cytotoxicity. The assay was performed according to manufacturer's instructions (Roche). It relies on the cleavage by cellular enzymes of WST.1 (water soluble tetrazolium salt: 4-[3-(4-iodophenyl)-2-(4-nitrophenyl)-2H-5-tetrazolio]-1,3-benzene disulfonate) to formazan. The amount of formazan dye formed correlates to the number of metabolically active cells in the culture and is readily read in an ELISA microplate reader using an absorbance wavelength of 440 nm. These OD values are plotted against concentrations of different compounds and IC50 is determined for each compound.
The term IC50 denotes the concentration needed to halve the response being measured. Low readings indicate higher potency, high ones lower potency. `O=c1[nH]c(=O)n([C@@H]2O[C@H](CO)C(O)C2O)c(I)c1Br` (stereo partly drawn): the IC50 was more than 50 µM.
Still for that read-out and setting: in the case of `CNc1cc(=O)[nH]c(=O)n1C1OC(CO)C(O)C1O` (stereo not drawn) it was more than 50 µM.
On the same count and under the same terms, under `CN(C)c1cc(=O)[nH]c(=O)n1C1OC(CO)C(O)C1O` (stereo not drawn) stands more than 50 µM.

The test system of a further assay is COLO205. Description: In vitro cell proliferation assay (WST.1, Table 5). Conditions: Homo sapiens, COLO 205, 72 h; COLO205, day 3. The assay is classed as cell-based. As to the method:
as §1, §2
`O=c1[nH]c(=O)n([C@@H]2O[C@H](CO)C(O)C2O)c(I)c1Br` (stereo partly drawn) came in with an IC50 of more than 50 µM.
The same measure, in the same setting: in the case of `CNc1cc(=O)[nH]c(=O)n1C1OC(CO)C(O)C1O` (stereo not drawn) it was more than 50 µM.
On the same count and under the same terms, in the case of `CN(C)c1cc(=O)[nH]c(=O)n1C1OC(CO)C(O)C1O` (stereo not drawn) it was more than 50 µM.

The next assay relates to HS58T. Description: In vitro cell proliferation assay (WST.1, Table 5). The assay is classed as cell-based. Conditions: Homo sapiens, 72 h, day 3. How it is done: as §1, §2
As for `O=c1[nH]c(=O)n([C@@H]2O[C@H](CO)C(O)C2O)c(I)c1Br` (stereo partly drawn), the IC50 was more than 50 µM.
On the same count and under the same terms, in the case of `CNc1cc(=O)[nH]c(=O)n1C1OC(CO)C(O)C1O` (stereo not drawn) it was more than 50 µM; in that of `CN(C)c1cc(=O)[nH]c(=O)n1C1OC(CO)C(O)C1O` (stereo not drawn), more than 50 µM.

A further assay concerns MCF7. Description: In vitro cell proliferation assay (WST.1, Table 5). The assay is classed as cell-based. The following applies: Homo sapiens, 72 h; MCF7, day 3. How it is done: as §1, §2
Compound `O=c1[nH]c(=O)n([C@@H]2O[C@H](CO)C(O)C2O)c(I)c1Br` (stereo partly drawn) returned a half-maximal inhibitory concentration (IC50) of more than 50 µM.
Take `CNc1cc(=O)[nH]c(=O)n1C1OC(CO)C(O)C1O` (stereo not drawn): the IC50 was more than 50 µM.
Still for that read-out and setting: in the case of `CN(C)c1cc(=O)[nH]c(=O)n1C1OC(CO)C(O)C1O` (stereo not drawn) it was more than 50 µM.

For the next assay, the system named is MDA468. Description: In vitro cell proliferation assay (WST.1, Table 5). The assay is classed as cell-based. Conditions: Homo sapiens, 72 h; MDA468, day 3. As to the method: as §1, §2
The compound `O=c1[nH]c(=O)n([C@@H]2O[C@H](CO)C(O)C2O)c(I)c1Br` (stereo partly drawn) yielded an IC50 of more than 50 µM.
In turn, `CNc1cc(=O)[nH]c(=O)n1C1OC(CO)C(O)C1O` (stereo not drawn) had an IC50 of more than 50 µM.
On the same count and under the same terms, in the case of `CN(C)c1cc(=O)[nH]c(=O)n1C1OC(CO)C(O)C1O` (stereo not drawn) it was more than 50 µM.

A further assay has as its system OCI-AML-1. The assay can be described thus: In vitro cell proliferation assay (WST.1, Table 5). Conditions: Homo sapiens, 72 h; OCI-AML-1, day 3. The assay is classed as cell-based. How it is done:
as §1, §2
`O=c1[nH]c(=O)n([C@@H]2O[C@H](CO)C(O)C2O)c(I)c1Br` (stereo partly drawn) yielded a concentration for half-maximal inhibition (IC50) of more than 50 µM.
As for `CNc1cc(=O)[nH]c(=O)n1C1OC(CO)C(O)C1O` (stereo not drawn), the 50% inhibitory concentration (IC50) is more than 50 µM.
Same read-out and setting: in the case of `CN(C)c1cc(=O)[nH]c(=O)n1C1OC(CO)C(O)C1O` (stereo not drawn) it was more than 50 µM.

The subject of a further assay is OCI-AML-2. Description: In vitro cell proliferation assay (WST.1, Table 5). The assay is classed as cell-based. Conditions: Homo sapiens, OCI-AML2, 72 h; OCI-AML-2, day 3. How it is done: as §1, §2
Turning to `O=c1[nH]c(=O)n([C@@H]2O[C@H](CO)C(O)C2O)c(I)c1Br` (stereo partly drawn), the IC50 was more than 50 µM.
With `CNc1cc(=O)[nH]c(=O)n1C1OC(CO)C(O)C1O` (stereo not drawn), the IC50 was more than 50 µM.
Still for that read-out and setting: in the case of `CN(C)c1cc(=O)[nH]c(=O)n1C1OC(CO)C(O)C1O` (stereo not drawn) it was more than 50 µM.

In a further assay the test system is OCI-Ly-7. The assay can be described thus: In vitro cell proliferation assay (WST.1, Table 5). The assay is classed as cell-based. Conditions: Homo sapiens, OCI-Ly7, 72 h; OCI-Ly-7, day 3. As to the method: as §1, §2
`O=c1[nH]c(=O)n([C@@H]2O[C@H](CO)C(O)C2O)c(I)c1Br` (stereo partly drawn) yielded a concentration for half-maximal inhibition (IC50) of more than 50 µM.
The same measure, in the same setting: in the case of `CNc1cc(=O)[nH]c(=O)n1C1OC(CO)C(O)C1O` (stereo not drawn) it was more than 50 µM; in that of `CN(C)c1cc(=O)[nH]c(=O)n1C1OC(CO)C(O)C1O` (stereo not drawn), more than 50 µM.

The subject of a further assay is OCI-My-2. Description: In vitro cell proliferation assay (WST.1, Table 5). The assay is classed as cell-based. The following applies: Homo sapiens, 72 h; OCI-My-2, day 3. As to the method: as §1, §2
`O=c1[nH]c(=O)n([C@@H]2O[C@H](CO)C(O)C2O)c(I)c1Br` (stereo partly drawn) registered a half-maximal inhibitory concentration (IC50) of more than 50 µM.
Regarding `CNc1cc(=O)[nH]c(=O)n1C1OC(CO)C(O)C1O` (stereo not drawn), the IC50 is more than 50 µM.
Same read-out and setting: under `CN(C)c1cc(=O)[nH]c(=O)n1C1OC(CO)C(O)C1O` (stereo not drawn) stands more than 50 µM.

Another assay concerns OCVR4. The assay can be described thus: In vitro cell proliferation assay (WST.1, Table 5). It counts as cell-based. Conditions: Homo sapiens, 72 h; OCVR4, day 3. As to the method: as §1, §2
Turning to `O=c1[nH]c(=O)n([C@@H]2O[C@H](CO)C(O)C2O)c(I)c1Br` (stereo partly drawn), the concentration for half-maximal inhibition (IC50) was more than 50 µM.
The same measure, in the same setting: in the case of `CNc1cc(=O)[nH]c(=O)n1C1OC(CO)C(O)C1O` (stereo not drawn) it was more than 50 µM; in that of `CN(C)c1cc(=O)[nH]c(=O)n1C1OC(CO)C(O)C1O` (stereo not drawn), more than 50 µM.

The next assay deals with PC3. The assay can be described thus: In vitro cell proliferation assay (WST.1, Table 5). The assay is classed as cell-based. The following applies: Homo sapiens, PC-3, 72 h; PC3, day 3. As to the method: as §1, §2
In the case of `O=c1[nH]c(=O)n([C@@H]2O[C@H](CO)C(O)C2O)c(I)c1Br` (stereo partly drawn), the IC50 was more than 50 µM.
Regarding `CNc1cc(=O)[nH]c(=O)n1C1OC(CO)C(O)C1O` (stereo not drawn), the 50% inhibitory concentration (IC50) was more than 50 µM.
`CN(C)c1cc(=O)[nH]c(=O)n1C1OC(CO)C(O)C1O` (stereo not drawn) gave an IC50 of more than 50 µM.

The test system of another assay is SKW3. The assay can be described thus: In vitro cell proliferation assay (WST.1, Table 5). Conditions: Homo sapiens, 72 h; SKW3, day 3. It counts as cell-based. How it is done: as §1, §2
With `O=c1[nH]c(=O)n([C@@H]2O[C@H](CO)C(O)C2O)c(I)c1Br` (stereo partly drawn), the IC50 is more than 50 µM.
The compound `CNc1cc(=O)[nH]c(=O)n1C1OC(CO)C(O)C1O` (stereo not drawn) yielded an IC50 of more than 50 µM.
`CN(C)c1cc(=O)[nH]c(=O)n1C1OC(CO)C(O)C1O` (stereo not drawn): the IC50 is more than 50 µM.

The test system of a further assay is SNB19. The assay can be described thus: In vitro cell proliferation assay (WST.1, Table 5). The assay is classed as cell-based. The following applies: Homo sapiens, SNB-19, 72 h; SNB19, day 3. How it is done: as §1, §2
For the compound `O=c1[nH]c(=O)n([C@@H]2O[C@H](CO)C(O)C2O)c(I)c1Br` (stereo partly drawn), the 50% inhibitory concentration (IC50) is more than 50 µM.
Consider `CNc1cc(=O)[nH]c(=O)n1C1OC(CO)C(O)C1O` (stereo not drawn), for which the IC50 was more than 50 µM.
Regarding `CN(C)c1cc(=O)[nH]c(=O)n1C1OC(CO)C(O)C1O` (stereo not drawn), the IC50 is more than 50 µM.

The subject of a further assay is T47D. The assay can be described thus: In vitro cell proliferation assay (WST.1, Table 5). Conditions: Homo sapiens, 72 h, day 3. It counts as cell-based. How it is done:
as §1, §2
In the case of `O=c1[nH]c(=O)n([C@@H]2O[C@H](CO)C(O)C2O)c(I)c1Br` (stereo partly drawn), the IC50 is more than 50 µM.
The compound `CNc1cc(=O)[nH]c(=O)n1C1OC(CO)C(O)C1O` (stereo not drawn) came in with an IC50 of more than 50 µM.
The same measure, in the same setting: in the case of `CN(C)c1cc(=O)[nH]c(=O)n1C1OC(CO)C(O)C1O` (stereo not drawn) it was more than 50 µM.

A further assay concerns LOX. The assay can be described thus: In vitro cell proliferation assay (WST.1, Table 5). The assay is classed as cell-based, human. Conditions: Homo sapiens, 72 h, day 3. As to the method:
as §1, §2
The compound `O=c1[nH]c(=O)n([C@@H]2O[C@H](CO)C(O)C2O)c(I)c1Br` (stereo partly drawn) returned a half-maximal inhibitory concentration (IC50) of more than 50 µM.
As for `CNc1cc(=O)[nH]c(=O)n1C1OC(CO)C(O)C1O` (stereo not drawn), the IC50 was more than 50 µM.
The same measure, in the same setting: under `CN(C)c1cc(=O)[nH]c(=O)n1C1OC(CO)C(O)C1O` (stereo not drawn) stands more than 50 µM.
